Measurements reported in US10059720B2, “Pyridine derivative” (Astellas Pharma Inc., priority 2014, dated 2018).
Counter-ions that a name gives are not always drawn. Like-named read-outs stand apart in the source and are kept apart here.

Key:
IRAP = IRAP (Rattus norvegicus (Rat), UniProt P97629); test: Inhibition of IRAP activity (AVP degradation by rat epididymal fat pad microsomes, MALDI-MS); conditions: read-out: IRAP IC50
[1] = Antidiuresis test in continuously hydrated rats with additional water loading (oral administration); type: in vivo, Male Wistar rats; conditions: for change of plasma sodium level (in words): after three hours and four hours of the administration, additional water loads; for urine production after additional water loads: groups with additional water loads (15 mL/kg at 2 h and 3 h); for urine production after additional water loads / plasma sodium level, 3 hours after administration / plasma sodium level, 4 hours after administration / urine production: EX-a 100 mg/kg, EX-b 30 mg/kg; for urine production after additional water loads / urine production: dDAVP 30 μg/kg oral; for plasma sodium level, 3 hours after administration / plasma sodium level, 4 hours after administration: groups with additional water loads, oral, dDAVP 30 μg/kg; for urine production: groups without additional water loads, after two hours of the administration, maintained until four hours
Protocol: FIG. 1 is a graph showing temporal changes in urine volumes of individual groups in the pharmacological test (4): antidiuresis test in continuously hydrated rats with additional water loading. The vertical axis represents urine volume (mL/30 min) and the horizontal axis represents elapsed time (hr) from the administration of the test compound. Groups represented by “ . . . +Water” are water-loaded groups. The arrows in the horizontal axis represent the time points of additional water-loading.
(4) Antidiuresis Test in Continuously Hydrated Rats with Additional Water Loading (Oral Administration)
Male Wistar rats were used in the test. Initially, water load with 15 mL/kg of distilled water was forcedly administered to the rats. Every 30 minutes after loading water, urine volume collected during 30 minutes was measured and distilled water was forcedly administered to the rats in an amount equal to the urine volume excreted during the last 30 minutes. This water load procedure was repeated to the termination of the test to maintain the diuretic state. […] The individual groups were further divided into two subgroups, and additional distilled water of 15 mL/kg load was forcedly administered to one of the subgroups two times, i.e. at two hours and three hours after the administration. For comparison, the Vehicle group administered only with the vehicle was also subjected to the additional administrations of water load. Blood was collected from a half of the rats in each group subjected to additional administrations of water load, at three hours after the administration (immediately before the second additional water load) and from the other half at four hours after the administration, and plasma sodium levels were measured with an automatic electrolyte analyzer to determine the plasma sodium levels at three hours and four hours after the administration, respectively (each group consisted of seven to eight rats). Changes in the urine volume in individual groups are shown in FIG. 1, and the plasma sodium levels of the group administered with additional water loads are shown in Table 4.

[2] = rat fat pad microsomes, AVP 25 μM, 1 h at 37° C.

Sequence of IRAP (P97629 whole entry): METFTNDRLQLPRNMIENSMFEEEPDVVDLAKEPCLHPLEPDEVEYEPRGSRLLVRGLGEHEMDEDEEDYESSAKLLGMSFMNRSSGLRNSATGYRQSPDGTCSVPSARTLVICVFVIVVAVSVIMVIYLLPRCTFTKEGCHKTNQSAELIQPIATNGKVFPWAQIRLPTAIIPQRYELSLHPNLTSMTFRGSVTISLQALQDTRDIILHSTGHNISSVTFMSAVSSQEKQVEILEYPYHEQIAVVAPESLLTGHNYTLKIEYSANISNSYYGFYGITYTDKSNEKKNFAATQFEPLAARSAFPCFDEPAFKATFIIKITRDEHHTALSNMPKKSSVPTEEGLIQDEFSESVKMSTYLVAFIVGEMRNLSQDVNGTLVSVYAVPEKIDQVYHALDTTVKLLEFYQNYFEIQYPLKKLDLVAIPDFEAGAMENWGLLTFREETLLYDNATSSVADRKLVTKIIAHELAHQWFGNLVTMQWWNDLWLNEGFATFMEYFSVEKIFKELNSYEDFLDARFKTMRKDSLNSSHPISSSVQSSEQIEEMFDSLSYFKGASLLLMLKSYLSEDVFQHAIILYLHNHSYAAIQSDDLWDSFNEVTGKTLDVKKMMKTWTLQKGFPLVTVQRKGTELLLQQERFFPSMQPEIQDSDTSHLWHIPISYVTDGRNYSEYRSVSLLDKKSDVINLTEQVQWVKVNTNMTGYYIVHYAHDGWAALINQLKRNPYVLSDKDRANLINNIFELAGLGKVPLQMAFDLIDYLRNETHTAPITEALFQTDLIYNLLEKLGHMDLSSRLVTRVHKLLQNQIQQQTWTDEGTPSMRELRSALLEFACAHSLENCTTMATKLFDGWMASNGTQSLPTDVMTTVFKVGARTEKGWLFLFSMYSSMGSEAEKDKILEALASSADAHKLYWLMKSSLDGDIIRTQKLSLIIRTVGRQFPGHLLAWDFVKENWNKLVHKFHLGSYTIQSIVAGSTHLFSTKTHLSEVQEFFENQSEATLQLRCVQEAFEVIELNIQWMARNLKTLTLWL

Row | Structure (SMILES) | IC50 (IRAP; [2]) | also measured
1 | N[C@@H](c1ccc(N2CCOCC2)cc1)[C@](O)(Cc1cc(OC2CCCCC2)ccn1)C(=O)O [Example 48] | 5.2 nM | –
2 | CC(C)C[C@H](N)[C@](O)(Cc1cc(O[C@H]2CC[C@H](C)CC2)ccn1)C(=O)O (relative stereo) [EX-a, (2R,3S)-3-amino-2-hydroxy-5-methyl-2-({4-[(trans-4-methylcyclohexyl)oxy]pyridin-2-yl}methyl)hexanoic acid] | – | change of plasma sodium level (in words) [1]: slightly decreased; urine production after additional water loads [1]: resumed after administration of the additional water loads; plasma sodium level, 3 hours after administration [1]: 134.9 ± 0.4 mmol/L; plasma sodium level, 4 hours after administration [1]: 133.2 ± 0.7 mmol/L; urine production [1]: almost stopped
3 | CC(C)C[C@H](N)[C@](O)(Cc1cc2c(cn1)ncn2CCC1CCCCC1)C(=O)O [Example 33] | 2.5 nM | –
4 | NC(=O)CC[C@@H]1NC(=O)[C@H](Cc2ccccc2)NC(=O)[C@H](Cc2ccc(O)cc2)NC(=O)CCSSC[C@@H](C(=O)N2CCC[C@H]2C(=O)N[C@H](CCCN=C(N)N)C(=O)NCC(N)=O)NC(=O)[C@H](CC(N)=O)NC1=O [dDAVP, Desmopressin, reference compound] | – | change of plasma sodium level (in words) [1]: more significant decreases; urine production after additional water loads [1]: not resumed; plasma sodium level, 3 hours after administration [1]: 132.0 ± 0.4 mmol/L; plasma sodium level, 4 hours after administration [1]: 128.0 ± 0.3 mmol/L; urine production [1]: almost stopped
5 | COc1cc(F)cc(OC[C@H](N)[C@](O)(Cc2cc(OC3CCCCC3)ccn2)C(=O)O)c1 [Example 31] | 27 nM | –
6 | N[C@@H](c1ccc(C2CC2)cc1)[C@](O)(Cc1cc(OC2CCCCC2)ccn1)C(=O)O [Example 23] | 8.2 nM | –
7 | COCc1ccc([C@H](N)[C@](O)(Cc2cc(OC3CCCCC3)ccn2)C(=O)O)cc1 [Example 50] | 14 nM | –
8 | N[C@@H](c1ccc(S(=O)(=O)C2CC2)cc1)[C@](O)(Cc1cc(OC2CCCCC2)ccn1)C(=O)O [Example 24] | 6.2 nM | –
9 | COc1ccnc(C[C@](O)(C(=O)O)[C@@H](N)CC(C)C)c1C [Example 22] | 250 nM | –
10 | N[C@@H](c1ccc(-c2ccccc2)cc1)[C@](O)(Cc1cc(OC2CCCCC2)ccn1)C(=O)O [Example 36] | 4.9 nM | –
11 | N[C@@H](COCc1ccccc1)[C@](O)(Cc1cc(OC2CCCCC2)ccn1)C(=O)O [Example 51] | 13 nM | –
12 | CC(C)C[C@H](N)[C@](O)(Cc1cc(O)ccn1)C(=O)O [7(2), (2R,3S)-3-amino-2-hydroxy-2-[(4-hydroxypyridin-2-yl)methyl]-5-methylhexanoic acid] | 200 nM | –
13 | CC(C)C[C@H](N)[C@@]1(Cc2cc(O[C@H]3CC[C@H](C)CC3)ccn2)OC(C)(C)OC1=O [Example 8, (5R)-5-[(1S)-1-amino-3-methylbutyl]-2,2-dimethyl-5-({4-[(trans-4-methylcyclohexyl)oxy]pyridin-2-yl}methyl)-1,3-dioxolan-4-one dihydrochloride] | 170 nM | –
14 | CS(=O)(=O)c1ccc(-c2ccc([C@H](N)[C@](O)(Cc3cc(OC4CCCCC4)ccn3)C(=O)O)cc2)cc1 [Example 45] | 0.42 nM | –
15 | COCc1ccc(OC[C@H](N)[C@](O)(Cc2cc(OC3CCCCC3)ccn2)C(=O)O)cc1 [Example 30] | 11 nM | –
16 | N[C@@H](c1ccc(Br)cc1)[C@](O)(Cc1cc(OC2CCCCC2)ccn1)C(=O)O [Example 68] | – | IC50 (IRAP; value marked *: measured using a dihydrochloride salt of the compound of the Example): 5.4 nM
17 | CCSC[C@H](N)[C@](O)(Cc1cc(O[C@H]2CC[C@H](C)CC2)ccn1)C(=O)O [EX-b, (2R,3R)-3-amino-4-(ethylsulfanyl)-2-hydroxy-2-({4-[(trans-4-methylcyclohexyl)oxy]pyridin-2-yl}methyl)butanoic acid] | – | change of plasma sodium level (in words) [1]: slightly decreased; urine production after additional water loads [1]: resumed after administration of the additional water loads; plasma sodium level, 3 hours after administration [1]: 140.4 ± 0.4 mmol/L; plasma sodium level, 4 hours after administration [1]: 139.2 ± 0.5 mmol/L; urine production [1]: almost stopped
18 | N[C@@H](/C=C/c1ccccc1)[C@](O)(Cc1cc(OC2CCCCC2)ccn1)C(=O)O [Example 40] | 8 nM | –

Second part, led by results:

Row | IC50 (IRAP; [2]) | Structure (SMILES) | also measured
19 | 290 nM | COc1cc(C[C@](O)(C(=O)O)[C@@H](N)CC(C)C)ncc1Br [Example 53] | –
20 | 13 nM | N[C@@H](COc1cccc(Br)c1)[C@](O)(Cc1cc(OC2CCCCC2)ccn1)C(=O)O [Example 70] | –
21 | 110 nM | C[C@H]1CC[C@H](Oc2ccnc(C[C@](O)(C(=O)O)[C@@H](N)Cn3cccn3)c2)CC1 [Example 85] | –
22 | 33 nM | N[C@@H](COC1CCCCC1)[C@](O)(Cc1cc(OCCC2CC2)ccn1)C(=O)O [Example 79] | –
23 | 15 nM | NC(COc1ccccc1Br)C(O)(Cc1cc(OC2CCCCC2)ccn1)C(=O)O (centres unmarked) [Example 71] | –
24 | 1.2 nM | COCCCCC[C@H](N)[C@](O)(Cc1cc(OC2CCCCC2)ccn1)C(=O)O [Example 75] | –
25 | 1.9 nM | CC(C)CC[C@H](N)[C@](O)(Cc1cc(OC2CCCCC2)ccn1)C(=O)O [Example 66] | –
26 | 2.8 nM | CC(C)C[C@H](N)[C@](O)(Cc1cc(OCCOC2CCCCC2)ccn1)C(=O)O [Example 97] | –
27 | 290 nM | CC(C)C[C@H](N)[C@](O)(Cc1cc2c(cn1)OCCO2)C(=O)O [Example 62] | –
28 | 5.3 nM | N[C@@H](COCCC(F)(F)F)[C@](O)(Cc1cc(OC2CCCCC2)ccn1)C(=O)O [Example 74] | –
29 | 200 nM | COc1cccc(Oc2ccnc(C[C@](O)(C(=O)O)[C@@H](N)CC(C)C)c2)c1 [Example 101] | –
30 | 130 nM | COc1cc(C[C@](O)(C(=O)O)[C@@H](N)CC(C)C)ncc1COCc1ccccc1 [Example 57] | –
31 | 15 nM | N[C@@H](COc1ccc(F)cc1)[C@](O)(Cc1cc(NC2CCCCC2)ccn1)C(=O)O [Example 91] | –
32 | 8.8 nM | Cc1ccc(OC[C@H](N)[C@](O)(Cc2cc(OC3CCCCC3)ccn2)C(=O)O)nc1 [Example 77] | –
